Legend:
Melanocyte [1] = assay: Viability of human non-TF expressing melanocytes; type: cell-based
MDA-MB-231 = assay: Viability of human TF expressing MDA-MB-231 cell line; type: cell-based
[2] = Viability of human non-TF expressing MCF10 cell line; type: cell-based; settings: MCF10 cells (non-TF expressing)
RPMI-7951 [3] = assay: Viability of human TF expressing RPMI7951 cell line; type: cell-based
RPMI-7951 [4] = assay: Cytotoxicity against human TF expressing RPMI7951 cell line at 2 uM; type: functional, cell-based
Melanocyte [5] = assay: Cytotoxicity against human non-TF expressing melanocytes at 4 uM; type: functional, cell-based

SMILES | Activity (Melanocyte [1]) | Activity (MDA-MB-231) | viability [2] [%] | Activity (RPMI-7951 [3]) | Activity (RPMI-7951 [4]) | Activity (Melanocyte [5])
N=C(N)NCCC[C@H](NC(=O)[C@H](Cc1ccccc1)NC(=O)[C@H](Cc1ccccc1)NC(=O)CCC(=O)N1C/C(=C\c2ccccc2F)C(=O)/C(=C/c2ccccc2F)C1)C(=O)CCl.O=C(O)C(F)(F)F | Not Active | Not Active | > 95 | Not Active | – | –
O=C1/C(=C/c2ccccc2F)CNC/C1=C\c1ccccc1F | – | – | – | – | Toxic | Toxic
